Molecular target: T1, Human BCL-XL protein (N-terminal HiBiT tagged BCL-XL expressed in HT1080 cells) (Homo sapiens, UniProt Q07817)
T1 construct: expressed in transfected cells; host or cells: HT-1080 (ATCC CCL-121), stably transduced with lentivirus pLV-UBC-N-HiBiT-BCL-XL-PGK-puro and selected with puromycin
Assay: HiBiT Based Degradation Assay
Assay type: cell-based
Conditions: 24 hours incubation; for DC50: BCL-XL degradation, HT1080 cells expressing N-HiBiT-BCL-XL, normalized with DMSO control, geometric mean for multiple data points, read-out: EC50 (24 h); for Ymin (24 h): bottom of BCL-XL degradation curve (remaining HiBiT-BCL-XL signal vs DMSO control), HT1080 cells
Source text: HiBiT Based Degradation Assay
Human BCL-XL protein coding open reading frame fused with N-terminal HiBiT coding sequence (N-HiBiT-BCL-XL) was synthesized from Integrated DNA Technologies (IDT). Next, N-HiBiT-BCL-XL sequence was cloned into pLV-UBC-PGK-Puro, a lentivirus plasmid purchased from Vectorbuilder, to generate pLV-UBC-N-HiBiT-BCL-XL-PGK-puro. Lentiviral particles were generated from Lenti-X™ 293T cells (Clontech) by co-transfection of pLV-UBC-N-HiBiT-BCL-XL-PGK-puro plasmids and lentiviral packaging plasmid mix (Cellecta). HT-1080 [HT1080](ATCC CCL-121™) cells were infected with the lentivirus, and HT1080 cells stably integrated with the lentiviral vector were established by incubation with 1 μg/mL puromycin (Thermofisher). HT1080 cells expressing N-terminal HiBiT tagged BCL-XL were dispensed into 384-well plates pre-spotted with compounds at varying concentrations. Three thousand cells were seeded into each well in 40 μL of RPMI 1640 media. After 24 hours of incubation at 37° C. with 5% CO2, 30 μL of the NANO-GLO® HiBiT Lytic Detection System working solution (Promega) was added to each well and incubated at room temperature for 30 min. After incubation, luminescence was read on a PHERAstar FSX Plate Reader (BMG). BCL-XL degradation at each indicated concentration was normalized with DMSO control. The BCL-XL degradation curves were plotted using a four-parameter logistic model. For compounds displaying hook effects, curve fitting was performed using bottom point of hook curves (i.e., the point of Ymin) as bottom plateau to calculate EC50. For compounds with multiple data points, the geometric mean is presented.

T1 sequence (Q07817 whole entry): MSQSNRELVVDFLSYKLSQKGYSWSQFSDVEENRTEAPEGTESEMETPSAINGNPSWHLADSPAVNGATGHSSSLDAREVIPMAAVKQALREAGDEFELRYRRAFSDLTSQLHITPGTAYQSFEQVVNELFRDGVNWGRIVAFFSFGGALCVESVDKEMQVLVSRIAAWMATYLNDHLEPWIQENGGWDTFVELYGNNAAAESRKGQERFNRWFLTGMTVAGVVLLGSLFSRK

| Compound | DC50 | Ymin (24 h) |
| --- | --- | --- |
| Cc1c(OCC2CC3(CCN(CC(=O)Nc4cc5c(cc4F)c(C4CCC(=O)NC4=O)nn5C)CC3)C2)cccc1-c1ccc(N2CCc3cccc(C(=O)Nc4nc5ccccc5s4)c3C2)nc1C(=O)O (centres unmarked) [Compound 121] | 10 to 100 nM | B (30% ≤ Ymin < 50%) |
| COc1c(NC(=O)CN2CCC(CCCOc3ccc(-c4ccc(N5CCc6cccc(C(=O)Nc7nc8ccccc8s7)c6C5)nc4C(=O)O)c(F)c3)CC2)ccc2c(C3CCC(=O)NC3=O)nn(C)c12 (centres unmarked) [Compound 201] | 10 to 100 nM | A (Ymin < 30%) |
| Cc1cc(O[C@H](C)CCC2CCN(CC(=O)Nc3ccc4c(C5CCC(=O)NC5=O)nn(C)c4c3F)CC2)ccc1-c1ccc(N2CCc3cccc(C(=O)Nc4nc5ccccc5s4)c3C2)nc1C(=O)O (single isomer, unassigned) [Compound 224b] | 10 to 100 nM | A (Ymin < 30%) |
| Cc1c(OC[C@@H]2C[C@@H]2CC2CCN(CC(=O)Nc3ccc4c(C5CCC(=O)NC5=O)nn(C)c4c3)CC2)cccc1-c1ccc(N2CCc3cccc(C(=O)Nc4nc5ccccc5s4)c3C2)nc1C(=O)O (single isomer, unassigned) [Compound 1004c] | < 10 nM | B (30% ≤ Ymin < 50%) |
| COc1c(NC(=O)CN2CCC3(CC2)CC(Oc2ccc(-c4ccc(N5CCc6cccc(C(=O)Nc7nc8ccccc8s7)c6C5)nc4C(=O)O)c(C(F)(F)F)c2)C3)ccc2c(C3CCC(=O)NC3=O)nn(C)c12 (centres unmarked) [Compound 172, 6-(8-(benzo[d]thiazol-2-ylcarbamoyl)-3,4-dihydroisoquinolin-2(1H)-yl)-3-(4-((7-(2-((3-(2,6-dioxopiperidin-3-yl)-7-methoxy-1-methyl-1H-indazol-6-yl)amino)-2-oxoethyl)-7-azaspiro[3.5]nonan-2-yl)oxy)-2-(trifluoromethyl)phenyl)picolinic acid] | 10 to 100 nM | B (30% ≤ Ymin < 50%) |
| C[C@@H]1C[C@H](CCCOc2ccc(-c3ccc(N4CCc5cccc(C(=O)Nc6nc7ccccc7s6)c5C4)nc3C(=O)O)c(C(F)(F)F)c2)CCN1CC(=O)Nc1ccc2c(C3CCC(=O)NC3=O)nn(C)c2c1 (some centres unmarked) [Compound 209c] | < 10 nM | A (Ymin < 30%) |
| COc1c(NC(=O)CN2CCC(CCCOc3cccc(-c4ccc(N5CCc6cccc(C(=O)Nc7nc8ccccc8s7)c6C5)nc4C(=O)O)c3F)CC2)ccc2c(C3CCC(=O)NC3=O)nn(C)c12 (centres unmarked) [Compound 200] | 10 to 100 nM | B (30% ≤ Ymin < 50%) |
| Cc1cc(OCCC[C@H]2CCN(CC(=O)Nc3ccc4c(C5CCC(=O)NC5=O)nn(C)c4c3)[C@H](C)C2)ccc1-c1ccc(N2CCc3ccnc(C(=O)Nc4nc5ccccc5s4)c3C2)nc1C(=O)O (some centres unmarked) [Compound 219c] | < 10 nM | A (Ymin < 30%) |
| Cc1c(OC[C@@H]2C[C@H]2CC2CCN(CC(=O)Nc3ccc4c(C5CCC(=O)NC5=O)nn(C)c4c3)CC2)cccc1-c1ccc(N2CCc3cccc(C(=O)Nc4nc5ccccc5s4)c3C2)nc1C(=O)O (single isomer, unassigned) [Compound 1004b] | 10 to 100 nM | B (30% ≤ Ymin < 50%) |
| Cn1nc(C2CCC(=O)NC2=O)c2ccc(NC(=O)CN3CCC4(CC3)CC(COc3ccc(-c5ccc(N6CCc7ccnc(C(=O)Nc8nc9ccccc9s8)c7C6)nc5C(=O)O)c(C(F)(F)F)c3)C4)cc21 (centres unmarked) [Compound 160, 6-[8-(1,3-benzothiazol-2-ylcarbamoyl)-3,4-dihydro-1H-2,7-naphthyridin-2-yl]-3-[4-[[7-[2-[[3-(2,6-dioxo-3-piperidyl)-1-methyl-indazol-6-yl]amino]-2-oxo-ethyl]-7-azaspiro[3.5]nonan-2-yl]methoxy]-2-(trifluoromethyl)phenyl]pyridine-2-carboxylic acid] | < 10 nM | B (30% ≤ Ymin < 50%) |
| COc1c(NC(=O)CN2CCC3(CC2)CC(Oc2cccc(-c4ccc(N5CCc6ccnc(C(=O)Nc7nc8ccccc8s7)c6C5)nc4C(=O)O)c2C)C3)ccc2c(C3CCC(=O)NC3=O)nn(C)c12 (centres unmarked) [Compound 184, 6-[8-(1,3-benzothiazol-2-ylcarbamoyl)-3,4-dihydro-1H-2,7-naphthyridin-2-yl]-3-[3-[[7-[2-[[3-(2,6-dioxo-3-piperidyl)-7-methoxy-1-methyl-indazol-6-yl]amino]-2-oxo-ethyl]-7-azaspiro[3.5]nonan-2-yl]oxy]-2-methyl-phenyl]pyridine-2-carboxylic acid] | < 10 nM | B (30% ≤ Ymin < 50%) |
| COc1c(NC(=O)CN2CCC3(CC2)CC(COc2cccc(-c4ccc(N5CCc6cccc(C(=O)Nc7nc8ccccc8s7)c6C5)nc4C(=O)O)c2C(F)(F)F)C3)ccc2c(C3CCC(=O)NC3=O)nn(C)c12 (centres unmarked) [Compound 143, 6-(8-(benzo[d]thiazol-2-ylcarbamoyl)-3,4-dihydroisoquinolin-2(1H)-yl)-3-(3-((7-(2-((3-(2,6-dioxopiperidin-3-yl)-7-methoxy-1-methyl-1H-indazol-6-yl)amino)-2-oxoethyl)-7-azaspiro[3.5]nonan-2-yl)methoxy)-2-(trifluoromethyl)phenyl)picolinic acid] | 10 to 100 nM | B (30% ≤ Ymin < 50%) |
| Cn1nc(C2CCC(=O)NC2=O)c2ccc(NC(=O)CN3CCC(CCCOc4ccc(-c5ccc(N6CCc7cccc(C(=O)Nc8nc9ccccc9s8)c7C6)nc5C(=O)O)c(C(F)(F)F)c4)CC3)nc21 (centres unmarked) [Compound 146] | 10 to 100 nM | B (30% ≤ Ymin < 50%) |
| COc1c(NC(=O)CN2CCC(CC[C@H](C)Oc3ccc(-c4ccc(N5CCc6cccc(C(=O)Nc7nc8ccccc8s7)c6C5)nc4C(=O)O)c(C)c3)CC2)ccc2c(C3CCC(=O)NC3=O)nn(C)c12 (single isomer, unassigned) [Compound 223a] | 10 to 100 nM | B (30% ≤ Ymin < 50%) |
| Cc1cc(O[C@H](C)CCC2CCN(CC(=O)Nc3ccc4c(C5CCC(=O)NC5=O)nn(C)c4n3)CC2)ccc1-c1ccc(N2CCc3cccc(C(=O)Nc4nc5ccccc5s4)c3C2)nc1C(=O)O (single isomer, unassigned) [Compound 225b] | 10 to 100 nM | B (30% ≤ Ymin < 50%) |
| Cn1nc(C2CCC(=O)NC2=O)c2ccc(NC(=O)CN3CCC4(CCC(Oc5cccc(-c6ccc(N7CCc8cccc(C(=O)Nc9nc%10ccccc%10s9)c8C7)nc6C(=O)O)c5C(F)(F)F)CC4)CC3)cc21 (centres unmarked) [Compound 196] | < 10 nM | B (30% ≤ Ymin < 50%) |
| Cc1c(OCCCC2CCN(CCOc3ccc4c(C5CCC(=O)NC5=O)nn(C)c4c3)CC2)cccc1-c1ccc(N2CCc3cccc(C(=O)Nc4nc5ccccc5s4)c3C2)nc1C(=O)O (centres unmarked) [Compound 156] | < 10 nM | B (30% ≤ Ymin < 50%) |
| C[C@H]1C[C@@H](CCCOc2ccc(-c3ccc(N4CCc5cccc(C(=O)Nc6nc7ccccc7s6)c5C4)nc3C(=O)O)c(C(F)(F)F)c2)CCN1CC(=O)Nc1ccc2c(C3CCC(=O)NC3=O)nn(C)c2c1 (stereo partly drawn) [Compound 209a, 6-(8-(benzo[d]thiazol-2-ylcarbamoyl)-3,4-dihydroisoquinolin-2(1H)-yl)-3-(4-(3-((2S,4S)-1-(2-((3-(2,6-dioxopiperidin-3-yl)-1-methyl-1H-indazol-6-yl)amino)-2-oxoethyl)-2-methylpiperidin-4-yl)propoxy)-2-(trifluoromethyl)phenyl)picolinic acid] | 10 to 100 nM | A (Ymin < 30%) |
| Cc1cc(OC[C@H]2C[C@@H]2CC2CCN(CC(=O)Nc3ccc4c(C5CCC(=O)NC5=O)nn(C)c4c3)CC2)ccc1-c1ccc(N2CCc3cccc(C(=O)Nc4nc5ccccc5s4)c3C2)nc1C(=O)O (single isomer, unassigned) [Compound 1002a] | < 10 nM | B (30% ≤ Ymin < 50%) |
| Cc1c(OC[C@H]2C[C@@H]2CC2CCN(CC(=O)Nc3ccc4c(C5CCC(=O)NC5=O)nn(C)c4c3)CC2)cccc1-c1ccc(N2CCc3cccc(C(=O)Nc4nc5ccccc5s4)c3C2)nc1C(=O)O (single isomer, unassigned) [Compound 1004a] | 10 to 100 nM | B (30% ≤ Ymin < 50%) |
| Cc1cc(OC2CC3(CCN(CC(=O)Nc4ccc5c(C6CCC(=O)NC6=O)nn(C)c5c4F)CC3)C2)ccc1-c1ccc(N2CCc3ccnc(C(=O)Nc4nc5ccccc5s4)c3C2)nc1C(=O)O (centres unmarked) [Compound 205] | < 10 nM | A (Ymin < 30%) |
| Cn1nc(C2CCC(=O)NC2=O)c2ccc(NC(=O)CN3CCC(CCCOc4cccc(-c5ccc(N6CCc7ccnc(C(=O)Nc8nc9ccccc9s8)c7C6)nc5C(=O)O)c4C(F)(F)F)CC3)cc21 (centres unmarked) [Compound 159, 6-[8-(1,3-benzothiazol-2-ylcarbamoyl)-3,4-dihydro-1H-2,7-naphthyridin-2-yl]-3-[3-[3-[1-[2-[[3-(2,6-dioxo-3-piperidyl)-1-methyl-indazol-6-yl]amino]-2-oxo-ethyl]-4-piperidyl]propoxy]-2-(trifluoromethyl)phenyl]pyridine-2-carboxylic acid] | 10 to 100 nM | B (30% ≤ Ymin < 50%) |

— patent US20260216170A1, “TETRAHYDROISOQUINOLINE HETEROBIFUNCTIONAL BCL-XL DEGRADERS” (Treeline Biosciences, Inc., priority 2023, published 2026)
